Measurements from patent publication US7713956B2, “Dealkylated derivatives of pyrrolo[2,1-b]benzothiazepines with atypical antipsychotic activity” (Sigma-Tau Industrie Farmaceutiche Riunite S.p.A., priority 2004, dated 2010).
Values joined by “and” are separate entries in the source; they are usually repeats but may differ in a detail not shown here. Identical values can stand only once.

Columns and labels:
Male Fischer 344 rats = assay: Active Avoidance Test (conditioned avoidance response), oral treatment; format: in vivo, rat; settings: for ED50 / effect on avoidance responses: oral; for ED50: 60 minutes prior to the test, rat, avoidance rate variable, read-out: ED50 (dose reducing avoidance responses by 50% compared to basal values); for effect on avoidance responses: over the active doses tested (ST1469 0.75-6 mg/kg; ST2087 2-8 mg/kg; ST2472 0.5-2 mg/kg)
Source text: Evaluation of the Antipsychotic Potency of ST1469 and ST1899 and their Respective Desmethyl Derivatives ST2087 and ST2472. Effect of Treatment in the Active Avoidance Test.
The administration of incremental doses of an antipsychotic drug in the rat causes the inhibition of the avoidance response and an increase in the number of escape responses without any increase in non-responses (failures). This modification of the avoidance behaviour of the animals is characteristic of the effect of the administration of a compound with antipsychotic activity, which selectively blocks the conditioned response within given dosage ranges. This behavioural assessment makes it possible to detect and determine the antipsychotic capacity of a product.
Male Fischer 344 rats weighing 180 g (Charles River) were used. The products ST1469 and ST2087 were administered to the animals orally, 60 minutes prior to the test. The product ST1469 was administered at doses of 0.75 mg/5 ml/kg (1.84 μmol/kg), 1.5 mg/5 ml/kg (3.69 μmol/kg), 3 mg/5 ml/kg (7.37 μmol/kg), and 6.0 mg/5 ml/kg (14.7 μmol/kg).
For the product ST2087 the following doses were used: 2 mg/5 ml/kg (6.25 μmol/kg), 3 mg/5 ml/kg (9.38 μmol/kg), 4 mg/5 ml/kg (12.50 μmol/kg), 6 mg/5 ml/kg ([…]) and 8 mg/5 ml/kg (25.01 μmol/kg).
To perform the avoidance behaviour assessment test, a piece of equipment (Ugo Basile) was used consisting of a plastic cage divided into two compartments by a partition wall with an opening in it allowing communication between the two sectors. Each of the two sectors can be illuminated by a 10-Watt lamp placed above a plexiglass cover covering the cage. A programming device permits the regulation of the duration and frequency of the un-conditioned and discriminatory stimuli, and a computerised system acquires the experimental data. During the study the discriminatory stimulus (light was delivered 3 seconds prior to the unconditioned stimulus (0.3 mA electric shock for 4 seconds). One test per minute was performed in each session making a total of 20 tests per day. One session per day administered.
The procedure consists in a 1 minute period of familiarisation of the rats in the test cage, followed by the series of tests the start of which is signalled by the light stimulus; the discriminatory stimulus is followed, a few seconds later, by the administration of an electric shock. The rats can avoid the shock by escaping into the adjoining compartment. The responses produced after switching on the light and before the electric shock interrupt the discriminatory stimulus and are considered “avoidances”; the responses produced during the shock period terminate both the discriminatory stimulus and the unconditioned stimulus and are considered “escapes”; non-avoidances are considered “failures”.
Prior to the treatment with the study compounds, the animals were selected in relation to their ability to acquire the task. Admitted to the test assessing the effect of treatment were those rats that produced at least 75% of avoidances in the basal tests.
The results were expressed as means and standard errors. On the basis of the number of conditioned responses (avoidances), the dose of product capable of reducing the value of this variable by 50% (ED50) compared to basal values was calculated by means of non-linear regression using the GraphPad Prism data analysis program.

[1] = In vitro metabolic stability / metabolic profile in rat hepatic microsomes; format: in vitro ADME, Rat (Sprague Dawley); settings: for metabolic profile (metabolites formed): rat hepatic microsomes 0.5 mg/ml, 10 μg/ml test item, 37° C. up to 120 minutes
Method: (§1) In this study the metabolic profiles of ST1899 and its metabolite ST2472 were determined in rat, mouse and monkey microsomes.
(§2) ST1899 and ST2472 were separately incubated with the hepatic microsomes. Separate experiments were carried out for each animal species investigated. For each experiment, in addition to the test item, 7-ethoxycoumarin (Sigma-Aldrich) was also incubated as a probe for evaluating the metabolic activity of the microsomes: 7-hydroxycoumarin was identified on the basis of the retention times in comparison with those of synthesized standard and used as marker of oxidative metabolism Both the test item and the 7-ethoxycoumarin were incubated at 37° C. up to 120 minutes.
(§3) MgCl2, β-D-glucose-6-phosphate, βNADP and Glucose-6-phosphate dehydrogenase were used for preparing the NADPH regenerating solution (NRS). 250 μl of 0.1 M pH 7.4 KH2PO4 buffer, 100 μl of NRS and 50 μl of test item (or 7-ethoxycoumarin) standard solution were added to 2 ml Eppendorf test tubes. In the samples, incubated either without microsomes or test items, an equal volume of 0.1 M pH 7.4 KH2PO4 buffer was added.
(§4) The reaction was started by adding 100 μl of the microsomal suspension to the samples and stopped at selected times by adding 500 μl of methanol. Samples were shaken and centrifuged at 8000 RPM for 10 minutes at 4° C. Supernatants were used for the HPLC analysis. 7-ethoxycoumarin, ST1899 and ST2472 were analyzed according to the HPLC methods described below.

[2] = In vitro metabolic stability / metabolic profile in mouse hepatic microsomes; format: in vitro ADME, Mouse (CD1); settings: for metabolic profile (metabolites formed): mouse hepatic microsomes 0.5 mg/ml, 10 μg/ml test item, 37° C. up to 120 minutes
Method: as §1, §2, §3, §4

[3] = In vitro metabolic stability / metabolic profile in monkey hepatic microsomes; format: in vitro ADME, Monkey (Cynomolgus); settings: for metabolic profile (metabolites formed): monkey hepatic microsomes 0.5 mg/ml, 10 μg/ml test item, 37° C. up to 120 minutes
Method: as §1, §2, §3, §4

[4] = Pharmacokinetics after oral administration of a 60 μmol/kg dose in the rat; format: in vivo
Source text: Pharmacokinetics of the Compound ST1469 and its Corresponding Des Methyl Derivative ST2087
Effect of the Oral Administration of a 60 μmol/kg Dose of Each Product in the Rat
Administration of ST1469 in the Rat (Table 1).
Administration of ST2087 in the Rat (Table 1)

[5] = 60 umol/kg, analyte = administered product, oral 60 μmol/kg, rat, plasma, mean

C1=C(N2CCNCC2)c2ccccc2Sc2cccn21 [ST2472, 9-Piperazin-1-yl-pyrrolo[2,1-b][1,3]benzothiazepine]
effect on behaviour of the animals (Male Fischer 344 rats; ST2472 at 0.25 mg/kg (0.88 μmol/kg)): does not significantly modify the behaviour of the animals | ED50 (Male Fischer 344 rats): 1.43 mg/kg and 5.05 µmol/kg | effect on avoidance responses (Male Fischer 344 rats): causes a progressive reduction of the avoidance responses and an increase in escapes | metabolic stability compared with ST1899 ([1]; rat hepatic microsomes): metabolically more stable than ST1899 | metabolic profile (metabolites formed) [1]: almost exclusively metabolized to M2 | metabolic stability compared with ST1899 ([2]; mouse hepatic microsomes): metabolically more stable than ST1899 | metabolic profile (metabolites formed) [2]: metabolized almost exclusively to M2 | metabolic stability compared with ST1899 ([3]; monkey hepatic microsomes): metabolically more stable than ST1899 | metabolic profile (metabolites formed) [3]: the main metabolite obtained was M3

Clc1ccc2c(c1)C(N1CCNCC1)Cn1cccc1S2 (racemic) [ST2087, (±)-7-chloro-9-(piperazin-1-yl)-9,10-dihydropyrrolo[2,1-b][1,3]-benzothiazepine]
AUC [4, 5]: 32.2 µM·h | Cmax [4, 5]: 4.09 µM | half-life [4, 5]: 4.4 h | concentrations at the systemic level when administered as such ([4]; oral ST2087 60 μmol/kg versus ST2087 formed after ST1469, rat): much higher concentrations than those measured after its formation as a result of administration of ST1469 | Tmax ([4]; rat, plasma, po, 60 umol/kg, analyte = administered product, oral 60 μmol/kg, mean): ≤ 2 h | ED50 (Male Fischer 344 rats): 3.27 mg/kg and 10.2 µmol/kg | effect on avoidance responses (Male Fischer 344 rats): capable of reducing the production of avoidance responses

CN1CCN(C2=Cn3cccc3Sc3ccccc32)CC1 [ST1899, 9-(4-methylpiperazin-1-yl)-pyrrolo[2,1-b]-[1,3]benzothiazepine, reference compound]
ED50 (Male Fischer 344 rats): 1.09 mg/kg and 3.66 µmol/kg | metabolic profile (metabolites formed) [1]: extensively metabolized to ST2472 | metabolic profile (metabolites formed) [2]: metabolized mainly to M1 | metabolic profile (metabolites formed) [3]: metabolized to ST2472 and to the metabolites M3 and M4
